The source of these data is patent US12529694B2, “Human in vitro cardiotoxicity model” (Brown University, priority 2019, dated 2026).

One series deals with rodents. To be noted: greater sensitivity in female rats than male rats; increased with isoproterenol stimulation; cited from earlier work.
The test system of the next series is hiPSC-CMLP microtissues. The text has this:
Cardiomyocyte differentiation. The inventors differentiated cardiomyocytes (CMs) from human pluripotent stem cells; either human embryonic stem cells (hESCs, e.g. line RUES2) or human induced pluripotent stem cells (hiPSCs; Gibco human episomal iPSCs from CD34+ cord blood, ThermoFisher Scientific, NCRM-5 human episomal iPSCs from CD34+ cord blood, NIH Center for Regenerative Medicine, WTC11 GM25256 human episomal iPSCs from dermal fibroblasts, The Gladstone Institutes, UCSF) in high-density monolayer cultures. […] Human pluripotent stem cells were cultured on plates coated with truncated human vitronectin (Life Technologies) in Essential 8 medium (ThermoFisher). […] Medium was changed daily until initiation of differentiation (day 0), when cells were approximately 60-90% confluent. […] C-59 (Tocris) or 1 μM XAV939 (Tocris), all chemical Wnt inhibitors, at day 3. […] Some differentiating cells received 100 ng/ml neuregulin-1β (NRG1) daily on days 5-18 (until use in engineered tissues) and/or in engineered tissues. Some engineered tissues received 100 nM insulin-like growth factor 1 (IGF1) daily and/or 100 ng/ml NRG1 daily in engineered tissues. […] Some experiments used unpurified cells as controls and were matched for duration of culture for experiments. Cells undergoing metabolic-based lactate purification were assessed for density and beating visually, and left in the wells of the high-density monolayer cultures for lactate purification if density was high and beating was uniform across large areas of the wells. Cells not meeting these requirements for density and beating were replated at high density, 5-6×10^6 cells/cm^2 on Matrigel-coated 6 well plates in RPMI+B27 medium after 10-20 days of differentiation. All cells undergoing lactate purification were not fed for 4 days as a starvation period to encourage a switch in metabolism from glycolysis to oxidative phosphorylation in the cardiomyocytes, which are capable of this type of metabolism, while non-cardiomyocytes have a lower ability to switch the metabolic phenotype and therefore die, resulting in more pure populations of cardiomyocytes. […] Lactate purified cells were fed with RPMI+B27 until robust beating returned or appeared. Cardiac purity is assessed by flow cytometry analysis.
Fabrication of microtissue mold hydrogels and 3D microtissue culture. Scaffold-free three-dimensional microtissues (spheroid in shape, also called spheroids and/or organoids) are generated using non-adhesive agarose gels with cylindrical microwells with hemispherical bottoms to guide self-assembly. Sterilized 2% (wt/vol) agarose is pipetted into molds designed for 24-well plates with 800-μm-diameter rounded pegs (Microtissues, Providence, RI, USA). After being cooled to room temperature (˜5 minutes), the agarose gels are separated from the molds and transferred to single wells of 24-well plates. For equilibration, 1 mL medium is added to each well. Hydrogels are equilibrated at least one hour or overnight at 37° C. in a humidified incubator with 5% CO2. […]
Optical mapping and automated action potential duration analysis. […] Fluorescence images were filtered using nonlinear bilateral filter (spatial filter: 5×5 window, temporal filter: 21 point window) to preserve action potential upstrokes from blurring. Typically, four microtissues were recorded simultaneously/scan at this magnification.

In another series the test system is hiPSC-CM microtissues. To be noted: human. The text has this: Fabrication of microtissue mold hydrogels and 3D microtissue culture. Scaffold-free three-dimensional microtissues (spheroid in shape, also called spheroids and/or organoids) are generated using non-adhesive agarose gels with cylindrical microwells with hemispherical bottoms to guide self-assembly. Sterilized 2% (wt/vol) agarose is pipetted into molds designed for 24-well plates with 800-μm-diameter rounded pegs (Microtissues, Providence, RI, USA). After being cooled to room temperature (˜5 minutes), the agarose gels are separated from the molds and transferred to single wells of 24-well plates. For equilibration, 1 mL medium is added to each well. Hydrogels are equilibrated at least one hour or overnight at 37° C. in a humidified incubator with 5% CO2. […] Medium is then added to each well (5 ml), and cells are cultured for 6-8 days with electrical field stimulation with a 1 Hz, 10.0 V, 4.0 ms duration bipolar pulse train for the full three-dimensional culture period (C-Pace EP, IonOptix).
Optical mapping and automated action potential duration analysis. The inventors used an Olympus MVX10 microscope to image 1.2×1.2-mm^2 regions. […] Fluorescence images were filtered using nonlinear bilateral filter (spatial filter: 5×5 window, temporal filter: 21 point window) to preserve action potential upstrokes from blurring. Typically, four microtissues were recorded simultaneously/scan at this magnification. […] The pixels with action potentials were identified from Fast Fourier transformation (FFT) of fluorescence signals. After appropriate thresholding and image segmentation, the region of each microtissue was grouped and the fluorescence signals from the pixels in the same microtissue were average and used for action potential analysis.
Validation and screening of toxicants for arrhythmogenic risk. […] Concentrations are selected to span human exposure levels or blood serum levels and quantify dose-dependent changes over a wide range (with a goal of more than 10,000× change in concentration and at least 4-6 doses). […]

Series [1] has as its system late sodium current (INa,late). Particulars: read-out: IC50, late sodium current (INa,late) block; cited from earlier work.
The nature of series [2]: Clinical exposure of ranolazine (FDA documentation). The series is classed as in vivo, human. To be noted: dose of 1000 mg b.i.d., bracketed conversion.
The subject of another series is INCX. Particulars: cited from earlier work.
The subject of a further series is late ICa. To be noted: cited from earlier work.
In the next series the test system is peak ICa. To be noted: cited from earlier work.
For series [3] the following is noted: cited from earlier work.
For series [4], the system named is human cardiac fibroblasts. Briefly: Biochemical myofibroblast activation of human cardiac fibroblasts, αSMA immunofluorescence normalized by vimentin. Type of series: cell-based. Particulars: 10 ng/ml TGF-β1 for forty-eight hours; passage 4 hCFs. The method, then:
The inventors next assessed the ability of human cardiac fibroblasts to be further activated via biochemical stimulation by treating passage 4 human cardiac fibroblasts with 10 ng/ml TGF-β1 for forty-eight hours. Cells were fixed and fluorescently labeled for αSMA and vimentin.

Read-outs that look alike come from different tables or passages of the source.

Regarding `CC(C)(c1ccc(O)cc1)c1ccc(O)cc1` [BPA, bisphenol-A], the concentration promoting arrhythmias with rodents is 1 nM. In addition, in the series with hiPSC-CMLP microtissues, the “APDtri (APD80-APD30)” value was “shorter”; the “concentration that shifts action potential duration measurements” value is given as “one”; the “excitability, pacing at 0.5 Hz” value is “fails to evoke action potentials”. For the same compound, the “APD30 and APD50 versus APD80” value in the series with hiPSC-CMLP microtissues (human, 20 min) was “APD30 and APD50 were shortened more than APD80”.

For `Cn1c(=O)c2c(ncn2C)n(C)c1=O` [caffeine], the action potential duration in the series with hiPSC-CM microtissues (5 mM) was determined as 90.5 ± 22.3 ms.

On to `CC(C)NCC(O)c1ccc(O)c(O)c1` (stereo not drawn) [isoproterenol], for which, in the series with hiPSC-CM microtissues (100 nM), the action potential duration was 120.1±10.5 and the “average reduction of APD80” value was determined as 45 ms.

The IC50 is the concentration that gives 50% inhibition. For orientation: Cmax means the maximum level reached in the sampled fluid or tissue. Regarding `COc1ccccc1OCC(O)CN1CCN(CC(=O)Nc2c(C)cccc2C)CC1` (stereo not drawn) [ranolazine], the IC50 in series [1] was 5.9 µM; in the series with INCX, 91 µM; with late ICa, 50 µM; with peak ICa it was 296 µM. Also, the Cmax was 6 µM in series [2] (read-out: mean steady-state Cmax [in blood serum]) and 0.98 to 14.2 µM in series [2] (human, serum, read-out: 95% of Cmax values). In addition, the “APD changes over dose-response” value in the series on hiPSC-CMLP microtissues is recorded as “moderate APD changes within a safety criteria of QT prolongation”. Besides, in [3] (dose of 1000 mg b.i.d.), the “mean steady-state Cmax [in blood serum]” value is 2569 ng/mL. In addition, the therapeutic concentration in series [3] (human, in vivo) was 1 to 10 µM.

In the case of “TGF-β1: growth factor used for biochemical activation of human cardiac fibroblasts to a myofibroblast-like state”, the “increase in normalized αSMA fluorescence compared to control” value in series [4] is 1.2 fold.
